One may read the IC50 as the concentration that gives 50% inhibition. Low readings indicate greater potency, high ones weaker potency. For orientation: EC50 means the concentration needed to bring the measured effect to its halfway point.

Data on six molecules can be found in patent US10793529B2, “Substituted pyridazines and 1,2,4-triazines as prostacyclin receptor modulators” (Arena Pharmaceuticals, Inc., priority 2008, dated 2020).

For one assay, the system named is human PRP. The experiment in a line: Human platelet aggregation inhibition test. Particulars: ADP-induced aggregation (1×10^−5 M ADP) in human platelet-rich plasma. The assay is classed as cell-based. The method, then: Blood collected from healthy human volunteers in aqueous trisodium citrate solution was centrifuged at 150 g for 15 min and the upper layer was recovered to obtain platelet-rich plasma (PRP). The residual blood was centrifuged at 3000 g for 10 min and the supernatant was collected as platelet-poor plasma (PPP). Platelet concentration in the PRP was determined using the Z series Beckman Coulter particle counter (Beckman, Fullerton, Calif.) and adjusted to 250,000 platelets/μL using PPP. 480 μL of PRP was pre-incubated at 37° C. and stirred at 1200 rpm with 10 μL aqueous test compound solution for 1 min prior to induction of aggregation by the addition of 10 μL of aqueous adenosine diphosphate (ADP) solution to adjust the final ADP concentration in the PRP to 1×10^−5 M. The maximal amplitude of aggregation response within 3 min was determined and measured in triplicate using the Chronolog model 490 aggregometer (Chrono-log Corp., Havertown, Pa.). Percent inhibition of aggregation was calculated from the maximum decrease in optical density of the control (addition of water in place of the test compound solution) sample and of the samples containing test compound. The test compound was added to adjust the final concentration to the range 10^−9 to 10^−4 M, and IC50 values were determined by inhibition percentage of aggregation at each concentration.

The target of assay [1] is human prostacyclin (PGI2) receptor (Homo sapiens (Human), UniProt P43119). Kind of assay: HTRF assay for direct cAMP measurement. In kind it is cell-based. Particulars: recombinant CHO-K1 cells stably transfected with human prostacyclin receptor; cAMP increase. The text has this:
Compounds were screened for agonists of the human prostacyclin (PGI2) receptor using the HTRF® assay for direct cAMP measurement (Gabriel et al., ASSAY and Drug Development Technologies, 1:291-303, 2003) and recombinant CHO-K1 cells stably transfected with human prostacyclin receptor. CHO-K1 cells were obtained from ATCC® (Manassas, Va.; Catalog # CCL-61). An agonist of the prostacyclin receptor was detected in HTRF® assay for direct cAMP measurement as a compound which increased cAMP concentration. HTRF® assay also was used to determine EC50 values for prostacyclin receptor agonists.
The HTRF® assay kit was purchased from Cisbio-US, Inc. (Bedford, Mass.; Catalog #62AM4PEC). The HTRF® assay supported by the kit is a competitive immunoassay between endogenous cAMP produced by the CHO-K1 cells and tracer cAMP labeled with the dye d2. The tracer binding is visualized by a monoclonal anti-cAMP antibody labeled with Cryptate. The specific signal (i.e., fluorescence resonance energy transfer, FRET) is inversely proportional to the concentration of unlabeled cAMP in the standard or sample.
The fluorescence ratio (665 nm/620 nm) of the standards (0.17 to 712 nM cAMP) included in the assay was calculated and used to generate a cAMP standard curve according to the kit manufacturer's instructions. The fluorescence ratio of the samples (test compound or compound buffer) was calculated and used to deduce respective cAMP concentrations by reference to the cAMP standard curve.
The HTRF® assay was carried out using a two-step protocol essentially according to the kit manufacturer's instructions, in 20 μL total volume per well in 384-well plate format (ProxiPlates; PerkinElmer, Fremont, Calif.; catalog #6008280). To each of the experimental wells was transferred 3000 recombinant CHO-K1 cells in 5 μL assay buffer (phosphate buffered saline containing calcium chloride and magnesium chloride (Invitrogen, Carlsbad, Calif.; catalog #14040) supplemented with IBMX ([…]) and rolipram ([…]) (phosphodiesterase inhibitors; Sigma-Aldrich, St. Louis, Mo.; catalog #15879 and catalog # R6520, respectively) and 0.1% bovine serum albumin (BSA) fraction V (Sigma-Aldrich; catalog # A3059)), followed by test compound in 5 μL assay buffer or 5 μL assay buffer. The plate was then incubated at room temperature for 1 h. To each well was then added 5 μL cAMP-d2 conjugate in lysis buffer and 5 μL Cryptate conjugate in lysis buffer according to the kit manufacturer's instructions. The plate was then further incubated at room temperature for 1 h, after which the assay plate was read.
The HTRF® readout was accomplished using a PHERAstar (BMG LABTECH Inc., Durham, N.C.) or EnVision™ (PerkinElmer, Fremont Calif.) microplate reader.

In assay [2] the test system is MCT-induced pulmonary arterial hypertension in rat. Kind of assay: Rat monocrotaline (MCT) model of pulmonary arterial hypertension. The assay is classed as in vivo. The conditions noted are these: 30 mg/kg oral gavage twice a day for 21 days, male Wistar rats, 60 mg/kg MCT s.c.; FIG. 1. The protocol: Male Wistar rats (100-150 g at start of study) (Charles River Laboratories, Wilmington, Mass.) were housed two per cage and maintained in a humidity-(40-60%) and temperature-(68-72° F.) controlled facility on a 12 hr: 12 hr light/dark cycle (lights on at 6:30 am) with free access to food (Harlan Teklad, Orange Calif., Rodent Diet 8604) and water. Rats were allowed one week of habituation to the animal facility before testing.
The rat monocrotaline (MCT) model is a standard and well-accepted model of pulmonary arterial hypertension. MCT induces acute pulmonary endothelial damage associated with pulmonary vascular inflammation. […]
Rats were randomly given a single subcutaneous injection of either 60 mg/kg MCT (Sigma, St. Louis, Mo.) or 0.9% saline (sham) and assigned to receive oral administration of 20% hydroxypropyl beta-cyclodextrin (vehicle) or test compound (30 mg/kg; FIG. 1). […] Heart chamber weights were measured on Day 22. […] The ratio of right ventricular (RV) weight to left ventricle plus septum (LV+S) weight (this ratio is indicated as “RV/(LV+S)” in FIG. 1) was calculated as an index of the hypertrophic response to the induced pulmonary arterial hypertension and, as such, as an index of a test compound's therapeutic efficacy for pulmonary arterial hypertension.

Sequence of human prostacyclin (PGI2) receptor (P43119 whole entry): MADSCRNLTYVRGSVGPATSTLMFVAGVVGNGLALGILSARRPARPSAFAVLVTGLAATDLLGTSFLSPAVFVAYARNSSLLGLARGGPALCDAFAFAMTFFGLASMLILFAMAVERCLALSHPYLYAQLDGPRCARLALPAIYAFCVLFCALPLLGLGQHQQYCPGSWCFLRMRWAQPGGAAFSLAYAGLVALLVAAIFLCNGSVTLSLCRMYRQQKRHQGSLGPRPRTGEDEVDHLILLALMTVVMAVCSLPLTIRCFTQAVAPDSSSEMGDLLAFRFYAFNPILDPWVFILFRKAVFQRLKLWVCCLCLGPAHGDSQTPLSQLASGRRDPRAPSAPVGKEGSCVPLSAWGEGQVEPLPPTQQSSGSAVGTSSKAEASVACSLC

Molecule `O=C(O)COC[C@H]1CC[C@@H](Cn2nc(-c3ccccc3)c(-c3cccc(F)c3F)cc2=O)CC1` [Compound 8, 2-(((1s,4s)-4-((4-(2,3-difluorophenyl)-6-oxo-3-phenylpyridazin-1(6H)-yl)methyl)cyclohexyl)methoxy)acetic acid] returned a 50% inhibitory concentration (IC50) with human PRP of 67 nM.
`O=C(O)COC[C@H]1CC[C@@H](Cn2nc(-c3ccccc3)c(-c3cccc(Cl)c3F)cc2=O)CC1` [Compound 31, 2-(((1s,4s,)-4-((4-(3-chloro-2-fluorophenyl)-6-oxo-3-phenylpyridazin-1(6H)-yl)methyl)cyclohexyl)methoxy)acetic acid]: the EC50 in assay [1] was 31 nM. The same molecule came in with an IC50 in the assay with human PRP of 21 nM.
The like results for `Cc1ccc(-c2nc(=O)n(C[C@H]3CC[C@@H](COCC(=O)O)CC3)nc2-c2ccc(C)cc2)cc1` [Compound 43, 2-(((1s,4s)-4-((3-oxo-5,6-di-p-tolyl-1,2,4-triazin-2(3H)-yl)methyl)cyclohexyl)methoxy)acetic acid] were, in that order, 36 nM and 130 nM.
Regarding `O=C(O)COC[C@H]1CC[C@@H](Cn2nc(-c3ccccc3)c(-c3cccc(Cl)c3)nc2=O)CC1` [Compound 67, 2-(((1s,4s)-4-((5-(3-chlorophenyl)-3-oxo-6-phenyl-1,2,4-triazin-2(3H)-yl)methyl)cyclohexyl)methoxy)acetic acid], the EC50 in assay [1] was found to be 73 nM.
As to `Cc1ccc(-c2nn(C[C@H]3CC[C@@H](COCC(=O)O)CC3)c(=O)nc2-c2ccccc2)cc1` [Compound 68, 2-(((1s,4s)-4-((3-oxo-5-phenyl-6-p-tolyl-1,2,4-triazin-2(3H)-yl)methyl)cyclohexyl)methoxy)acetic acid], the “right ventricle hypertrophic response, RV/(LV+S)” value in assay [2] is “inhibited the hypertrophic response”.
`COc1ccc(-c2nn(C[C@H]3CC[C@@H](COCC(=O)O)CC3)c(=O)nc2-c2ccccc2)cc1` [Compound 69, 2-(((1s,4s)-4-((6-(4-methoxyphenyl)-3-oxo-5-phenyl-1,2,4-triazin-2(3H)-yl)methyl)cyclohexyl)methoxy)acetic acid]: the EC50 in assay [1] is 8 nM. In the assay with human PRP, this molecule displayed an IC50 of 22 nM.
